The target of experiment [1] is T1, bovine cardiac myofibrils (Bos taurus, UniProt Q9BE39).
T1 construct: full-length cardiac myosin in the context of the native sarcomere, skinned myofibril assays were performed; from tissue; host or cells: bovine cardiac left ventricular tissue, detergent-skinned (Triton X-100) myofibrils
Description: Skinned myofibril ATPase assay (PK/LDH-coupled), CDMF75. In kind it is biochemical. The following applies: inhibition of steady-state ATPase activity of bovine cardiac myofibrils at 75% Ca2+ activation (pCa75). Here is the method: To evaluate the effect of compounds on the ATPase activity of full-length cardiac myosin in the context of the native sarcomere, skinned myofibril assays were performed. Bovine cardiac myofibrils were obtained by homogenizing bovine cardiac left ventricular tissue in the presence of a detergent such as triton X-100. Such treatment removes membranes and a majority of the soluble cytoplasmic proteins but leaves intact the cardiac sarcomeric acto-myosin apparatus. Myofibril preparations retain the ability to hydrolyze ATP in an Ca^2+ regulated manner. ATPase activities of such myofibril preparations in the presence and absence of compounds were assayed at Ca^2+ concentrations activating to a defined fraction of the maximal rate (i.e., 25%, 75%). Small molecule agents were assessed for their ability to inhibit the steady-state ATPase activity of bovine cardiac myofibrils using pyruvate kinase and lactate dehydrogenase (PK/LDH)-coupled enzyme system. This assay regenerates myosin-produced ADP into ATP by oxidizing NADH, producing an absorbance change at 340 nm. Prior to testing small molecule agents, the bovine cardiac myofibrils were assessed for their calcium responsiveness and the calcium concentration that achieves either a 50% (pCa50) or 75% (pCa75) activation of the myofibril system was chosen as the final condition for assessing the inhibitory activity of the small molecule agents. All enzymatic activity was measured in a buffered solution containing 12 mM PIPES (piperazine-N,N′-bis(2-ethanesulfonic acid), 2 mM magnesium chloride at pH 6.8 (PM 12 buffer). Final assay conditions were 1 mg/mL of bovine cardiac myofibrils, 4 U/mL pyruvate kinase, 6 U/mL lactate dehydrogenase, 50 μM ATP, 0.1 mg/mL BSA (bovine serum albumin), 10 ppm antifoam, 1 mM DTT, 0.5 mM NADH, 1.5 mM PEP, 0.6 mM EGTA, and an amount of CaCl2 sufficient to achieve either 50% or 75% activation of the myofibril ATPase activity. Results for compounds tested are provided in Table A. Compounds tested were prepared in accordance with the synthetic procedures described herein.

Experiment [2] deals with adult cardiac ventricular rat myocytes. Description: Adult ventricular myocyte contractility (fractional shortening). The note with it: 5 min perfusion, 5 cells tested. It counts as cell-based, Sprague-Dawley rats. On the procedure: Adult male Sprague-Dawley rats were anesthetized and the hearts were quickly excised, rinsed and the ascending aorta was cannulated. Continuous retrograde perfusion was initiated on the hearts at a perfusion pressure of 60 cm H2O. Hearts were first perfused with a nominally Ca^2+-free modified Krebs solution of the following composition: 113 mM NaCl, 4.7 mM KCl, 0.6 mM KH2PO4, 0.6 mM Na2HPO4, 1.2 mM MgSO4, 12 mM NaHCO3, 10 mM KHCO3, 30 mM taurine, 5.5 mM glucose and 10 mM Hepes (all Sigma). This medium is not recirculated and is continually aerated with a 95% O2/5% CO2 mixture. After approximately 3 minutes, the heart was perfused with a modified Krebs buffer supplemented with collagenase (Worthington) and 12.5 μM final calcium concentration. The heart was removed from the cannulae after the heart appeared blanched and soft in appearance. The atria and vessels were removed, and the ventricles were gently dissected into smaller pieces with forceps. The tissue was homogenized by repeated pipette trituration, and the collagenase reaction was stopped by 10% bovine calf serum (BCS), sedimentation and resuspension in perfusion buffer containing 5% BCS and 12.5 uM CaCl2. Myocytes were made calcium tolerant by stepwise addition of a CaCl2 solution to a final concentration of 1.2 mM. Cells were then washed and resuspended in Tyrode's buffer (137 mM NaCl, 3.7 mM KCl, 0.5 mM MgCl, 11 mM glucose, 4 mM Hepes, and 1.2 mM CaCl2, pH 7.4). Cells were kept for 60 min at 37° C. prior to initiating experiments and used within 5 hrs of isolation. […] Additionally, only cells whose basal contractility was between 3 and 8% were used in subsequent experiments with compounds.
Aliquots of myocytes in Tyrode's buffer were placed in perfusion chambers (series 20 RC-27NE; Warner Instruments) complete with heating platforms. […] Contractility of the myocytes and contraction and relaxation velocities were then recorded using edge detection.
Five or more individual myocytes were tested per compound from two or more different myocyte preparations. […] These average transients were analyzed using the IonWizard software (IonOptix) to determine changes in diastolic length and fractional shortening. Fractional shortening was calculated as: ((resting length −length at peak contraction) divided by the resting length). The percent change in fractional shortening from baseline was calculated as: ((post-dose fractional shortening/basal fractional shortening)*100). The percent reduction in fractional shortening from baseline was calculated as: (100−percent change in fractional shortening from baseline). Maximum contraction and relaxation velocities (um/sec) was also determined. Results from individual cells were averaged and the SEM was calculated.

Experiment [3] relates to rat cardiac contractility. Briefly: Echocardiography assessment of acute pharmacodynamic effect in rat cardiac contractility (continuous IV infusion). In kind it is in vivo, Sprague Dawley rats. The note with it: estimated plasma concentration for 20% relative reduction in cardiac fractional shortening, loading + maintenance IV dose 0.5 + 1.5 mg/kg, isoflurane anesthesia. On the procedure:
Echocardiography assessment of acute pharmacodynamic effect in rat cardiac contractility.
Assessment of in vivo cardiac function by echocardiography was performed in male Sprague Dawley rats under isoflurane (1-3%) anesthesia. 2-D M-mode images of the left ventricle were acquired in the parasternal long-axis view before and during administration of compounds by continuous IV infusion. In vivo fractional shortening was determined by M-mode image analysis with the following calculation: ((End diastolic diameter−end systolic diameter)/end diastolic diameter×100). For continuous IV infusion experiments, three pre-dose baseline M-mode images were taken at 1 minute intervals prior to infusion of compound. Compounds were formulated in 50% Propylene Glycol (PG): 16% Cavitron: 10% dimethylacetamide (DMA) and delivered via a jugular vein catheter at the rate of 1 mL/kg/h. An estimated loading and maintenance IV infusion dose was administered to establish a steady state plasma concentration that produced a sustained, 20% relative reduction in cardiac fractional shortening for 60 minutes. During infusion, M-mode images were taken at 5 minute intervals for 60 minutes. Blood samples were taken to determine the plasma concentration of the compounds. Data were reported as an estimated IC20 value, which is the concentration at which fractional shortening is […]. […]

T1 sequence (Q9BE39 whole entry): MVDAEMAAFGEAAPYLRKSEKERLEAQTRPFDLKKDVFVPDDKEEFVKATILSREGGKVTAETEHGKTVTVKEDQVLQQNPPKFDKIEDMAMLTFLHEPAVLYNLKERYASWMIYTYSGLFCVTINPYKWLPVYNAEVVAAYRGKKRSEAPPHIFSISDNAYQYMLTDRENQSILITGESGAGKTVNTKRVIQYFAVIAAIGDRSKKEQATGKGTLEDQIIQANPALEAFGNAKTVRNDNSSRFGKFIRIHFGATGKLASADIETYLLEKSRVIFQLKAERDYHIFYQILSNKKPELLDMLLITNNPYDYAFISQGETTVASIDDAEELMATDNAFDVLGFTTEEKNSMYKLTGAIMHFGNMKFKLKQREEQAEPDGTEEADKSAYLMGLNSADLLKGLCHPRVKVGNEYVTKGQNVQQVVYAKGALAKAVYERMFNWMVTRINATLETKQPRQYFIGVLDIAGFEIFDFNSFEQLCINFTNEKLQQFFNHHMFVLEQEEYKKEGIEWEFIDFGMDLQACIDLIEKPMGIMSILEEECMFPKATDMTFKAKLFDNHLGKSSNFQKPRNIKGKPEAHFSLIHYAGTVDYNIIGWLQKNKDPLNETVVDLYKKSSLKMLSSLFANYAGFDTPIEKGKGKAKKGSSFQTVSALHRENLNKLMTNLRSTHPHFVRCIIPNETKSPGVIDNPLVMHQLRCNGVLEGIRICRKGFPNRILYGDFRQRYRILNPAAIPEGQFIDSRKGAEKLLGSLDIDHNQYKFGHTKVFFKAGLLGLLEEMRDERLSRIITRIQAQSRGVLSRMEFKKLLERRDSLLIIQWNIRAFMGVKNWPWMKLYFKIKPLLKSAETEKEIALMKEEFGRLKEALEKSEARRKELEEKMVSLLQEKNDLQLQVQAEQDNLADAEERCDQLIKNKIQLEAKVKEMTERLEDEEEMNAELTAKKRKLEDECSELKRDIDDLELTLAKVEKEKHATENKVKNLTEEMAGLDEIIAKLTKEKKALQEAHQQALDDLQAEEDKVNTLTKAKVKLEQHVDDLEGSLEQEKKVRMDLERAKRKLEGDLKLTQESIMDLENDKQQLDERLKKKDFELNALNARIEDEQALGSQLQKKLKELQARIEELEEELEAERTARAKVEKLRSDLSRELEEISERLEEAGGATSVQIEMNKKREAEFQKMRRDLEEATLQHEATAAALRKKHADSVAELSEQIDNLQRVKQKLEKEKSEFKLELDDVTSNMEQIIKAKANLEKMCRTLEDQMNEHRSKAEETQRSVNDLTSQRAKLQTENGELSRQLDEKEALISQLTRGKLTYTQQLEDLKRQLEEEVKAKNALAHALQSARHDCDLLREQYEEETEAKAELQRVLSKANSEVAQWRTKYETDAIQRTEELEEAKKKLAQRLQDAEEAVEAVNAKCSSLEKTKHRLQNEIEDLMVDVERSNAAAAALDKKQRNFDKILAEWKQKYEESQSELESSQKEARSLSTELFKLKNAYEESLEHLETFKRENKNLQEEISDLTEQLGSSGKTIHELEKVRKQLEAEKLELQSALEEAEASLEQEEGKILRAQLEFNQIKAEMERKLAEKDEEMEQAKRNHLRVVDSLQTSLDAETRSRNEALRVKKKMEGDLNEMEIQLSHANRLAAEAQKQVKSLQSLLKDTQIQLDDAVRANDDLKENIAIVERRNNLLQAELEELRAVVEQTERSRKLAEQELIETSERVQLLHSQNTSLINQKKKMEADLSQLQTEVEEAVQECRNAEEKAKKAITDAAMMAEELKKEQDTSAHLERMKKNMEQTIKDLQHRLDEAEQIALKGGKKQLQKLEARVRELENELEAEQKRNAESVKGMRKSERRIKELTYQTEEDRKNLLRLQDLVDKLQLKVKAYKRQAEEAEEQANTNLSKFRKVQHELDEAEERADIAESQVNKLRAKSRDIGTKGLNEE
T1 sequence (P85100 whole entry partner): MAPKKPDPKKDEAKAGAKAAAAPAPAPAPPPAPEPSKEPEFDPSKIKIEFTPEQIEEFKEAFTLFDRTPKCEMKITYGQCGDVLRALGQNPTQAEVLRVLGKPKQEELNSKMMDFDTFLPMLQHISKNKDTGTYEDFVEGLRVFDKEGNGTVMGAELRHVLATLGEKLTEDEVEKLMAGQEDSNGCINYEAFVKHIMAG
T1 sequence (Q3SZE5 whole entry partner): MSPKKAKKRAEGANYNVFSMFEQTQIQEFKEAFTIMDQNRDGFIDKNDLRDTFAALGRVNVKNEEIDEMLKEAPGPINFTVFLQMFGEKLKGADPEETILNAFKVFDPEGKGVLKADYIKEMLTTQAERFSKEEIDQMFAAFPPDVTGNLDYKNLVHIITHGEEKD

As for `Cc1nc(-c2ccc(CNc3cc(C(N)=O)ccn3)cc2)no1` [Compound 19, 2-((4-(5-methyl-1,2,4-oxadiazol-3-yl)benzyl)amino) isonicotinamide], in experiment [1], the “CDMF75 IC15” value was found to be 1.2 µM and the IC50 amounted to 4.3 µM. For the same molecule, the “% FS (% reduction from baseline) ± SEM” value in experiment [2] (concentration 10 μM) came out at 14.4 ± 3.4%.
As for `Cc1nc(-c2ccc([C@@H](C)Nc3cnccn3)cc2)no1` [Compound 28, (R)-N-(1-(4-(5-methyl-1,2,4-oxadiazol-3-yl)phenyl)ethyl)pyrazin-2-amine], in experiment [1], the “CDMF75 IC15” value was 0.6 µM and the IC50 came to 2.6 µM. In experiment [3], the IC20 at 1.5 mg/kg is 0.8 µM. In addition, in experiment [2] (concentration 5 μM), the “% FS (% reduction from baseline) ± SEM” value turned out to be 43.6 ± 9.3%.
As to `C[C@@H](Nc1cnccn1)c1ccc(-c2noc(C(F)(F)F)n2)cc1` [Compound 34, (R)-N-(1-(4-(5-(trifluoromethyl)-1,2,4-oxadiazol-3-yl)phenyl)ethyl)pyrazin-2-amine], in experiment [1], the “CDMF75 IC15” value was 0.5 µM and half-maximal inhibition (IC50) required 2.3 µM. The “% FS (% reduction from baseline) ± SEM” value in experiment [2] (concentration 5 μM) came out at 30.7 ± 5.0%.
As for `Cc1cc(-c2ccc(CNc3cnccn3)cc2)no1` [Compound 52, N-(4-(5-methylisoxazol-3-yl)benzyl)pyrazin-2-amine], in experiment [1], the “CDMF75 IC15” value was 0.2 µM and the 50% inhibitory concentration (IC50) worked out at 1 µM. In addition, in experiment [2] (concentration 1 μM), the “% FS (% reduction from baseline) ± SEM” value amounted to 17.4 ± 6.8%.
Turning to `COc1cccc(NCc2ccc(-c3cc(C)on3)cc2)n1` [Compound 71, 6-methoxy-N-[[4-(5-methyl-1,2-oxazol-3-yl)phenyl]methyl]pyridin-2-amine], in experiment [1], the “CDMF75 IC15” value is greater than 39.2 µM and the half-inhibitory concentration (IC50) is greater than 39.2 µM.

By IC50 is commonly meant the concentration at which inhibition is half-maximal. In general, IC20 refers to the point of the concentration-response curve where the effect stands at 20%.

Source of the values: patent publication US12187712B2, “Cardiac sarcomere inhibitors” (Cytokinetics, Inc., priority 2018, dated 2025).
